These are literature values, as cited in patent publication US20050192267A1, “Use of targeted oxidative therapeutic formulation in treatment of viral diseases” (priority 2004, published 2005).

The structures appear in SMILES notation.

For data set [1], the system named is Hepatitis C. As to conditions: chronic Hepatitis C; used alone.
The subject of data set [2] is peroxide-sensitive E. coli. The settings on record: infused into the blood of infected rabbits.
In data set [3] the test system is E. coli. As to conditions: increasing concentration of peroxide ex-vivo in rabbit or human blood.

As for `NC(=O)c1ncn([C@@H]2O[C@H](CO)[C@@H](O)[C@H]2O)n1` [Ribavirin, ribavirin], the effectiveness of treatment result in data set [1] is listed as “does not appear to be effective”.

As to `OO` [hydrogen peroxide, Hydrogen peroxide], in data set [2], the bactericidal effect result is recorded as “no bactericidal effect”. Further, the direct bactericidal activity entry in data set [3] is recorded as “no evidence of direct bactericidal activity”.
